The values that follow come from patent publication US7632783B2 (priority 2004, dated 2009).

Each structure is given as a SMILES string.

Data set [1] deals with rice blast (Pyricularia oryzae). It is filed as in vivo. The conditions noted are these: potted rice (variety Karakaze), spraying liquid 300 ppm after spore inoculation, observed 7 days after inoculation, levels 0 to 3.
Data set [2] concerns gray mold (Botrytis cinerea). In words: Tomato gray mold control test (preventive effects). Also: key: 0: No onset of disease; 1: Degree of disease onset less than 40% of the untreated area; 2: Degree of disease onset 40% to less than 80% of the untreated area; 3: Degree of disease onset 80% or more. The conditions noted are these: potted tomato (giant Fukuju variety), spraying liquid 300 ppm before spore inoculation, investigated 2 days after inoculation, levels 0 to 3. It is filed as in vivo.

For `CC1(C)Cc2c(F)cccc2C(C)(c2cnc3ccccc3c2)N1` (stereo not drawn), the melting point was 148 to 150 °C. On the same count and under the same terms, the result for `CC1(C)Cc2c(Cl)cccc2C(C)(c2cnc3ccccc3c2)N1` (stereo not drawn) reads 142 to 144 °C; that for `CC1(C)Cc2c(C(N)=O)cccc2C(c2cnc3ccccc3c2)=N1`, 236 to 240 °C. `CC1(C)N=C(c2cnc3ccccc3c2)c2cccc(F)c2C1O` (stereo not drawn) returned a melting point of 225 to 226 °C.

In turn, `CC1(C)N=C(c2cnc3ccccc3c2)c2ccccc2C1=O` showed a melting point of 137 °C. The same measure, in the same setting: then `CC1(C)NC(c2cnc3ccccc3c2)c2cccc(F)c2C1=O` (stereo not drawn), with 228 to 229 °C; and `CC1(C)N=C(c2cnc3ccccc3c2)c2cc(Br)ccc2C1(F)F`, with 123 to 125 °C; and `CC1(C)Cc2c(cccc2-c2cnco2)C(c2cnc3ccccc3c2)=N1`, with 175 to 179 °C. Same read-out and setting: then `CN1C(c2cnc3ccccc3c2)c2ccccc2CC1(C)C` (stereo not drawn), with 116 to 118 °C. `CC1(C)Cc2ccccc2C(c2cnc3ccccc3c2)N1` (stereo not drawn) [Example 4, 3-(3,3-dimethyl-1,2,3,4-tetrahydroisoquinolin-1-yl)quinoline] returned a melting point of 117 to 122 °C. Besides, the “degree of disease onset” value in data set [1] turned out to be 0. For the compound `CC1(C)Cc2c(F)cccc2C(c2cnc3ccccc3c2)N1` (stereo not drawn) [Example 110, 3-(5-fluoro-3,3-dimethyl-1,2,3,4-tetrahydroisoquinoline-1-yl)quinoline], the melting point was 142 to 144 °C. For the same compound, the “degree of disease onset” value in data set [1] is on record as 0. Further, the “degree of disease onset” value in data set [2] was found to be 0. `CC1(C)Cc2c(Cl)cccc2C(c2cnc3ccccc3c2)N1` (stereo not drawn) [Example 112, 3-(5-chloro-3,3-dimethyl-1,2,3,4-tetrahydroisoquinoline-1-yl)quinoline] registered a melting point of 129 to 131 °C. For the same compound, in data set [1], the “degree of disease onset” value amounted to 0. Further, in data set [2], the “degree of disease onset” value was found to be 0.

The compound `CC1c2c(F)cccc2C(c2cnc3ccccc3c2)NC1(C)C` (stereo not drawn) [Example 124, 3-(5-fluoro-3,3,4-trimethyl-1,2,3,4-tetrahydroisoquinoline-1-yl)quinoline] registered a melting point of 133 to 134 °C. Further, the “degree of disease onset” value in data set [1] is 0. The matching figures for `CC1(C)NC(c2cnc3ccccc3c2)c2cccc(F)c2C1(C)C` (stereo not drawn) [Example 125, 3-(5-fluoro-3,3,4,4-tetramethyl-1,2,3,4-tetrahydroisoquinoline-1-yl)quinoline]: 179 to 181 °C and 0.

`CCOC1(C)c2c(F)cccc2C(c2cnc3ccccc3c2)=NC1(C)C` (stereo not drawn) [Example 184, 3-(4-ethoxy-5-fluoro-3,3,4-trimethyl-3,4-dihydroisoquinolin-1-yl)quinoline] had a melting point of 118 to 119 °C. The “degree of disease onset” value in data set [1] stood at 0. The matching figures for `CCC1(OC)c2c(F)cccc2C(c2cnc3ccccc3c2)=NC1(C)C` (stereo not drawn) [Example 185, 3-(4-ethyl-5-fluoro-4-methoxy-3,3-dimethyl-3,4-dihydroisoquinolin-1-yl)quinoline]: 145 to 147 °C and 0.

As for `CC1(C)c2cc(F)ccc2C2(c3cnc4ccccc4c3)ON2C1(C)C` (stereo not drawn) [Example 199, 6-fluoro-3,3,4,4-tetramethyl-8b-quinolin-3-yl-4,8b-dihydro-3H-oxazileno[3,2-a]isoquinoline], the “degree of disease onset” value in data set [1] and in data set [2] was 0 throughout. Consider `CC1(C)c2ccccc2C2(c3cnc4ccccc4c3)ON2C12CCCC2` (stereo not drawn) [Example 202, 4′,4′-dimethyl-8b′-quinolin-3-yl-4′,8b′-dihydrospiro[cyclopentane-1,3′-oxazileno[3,2-a]isoquinoline]], for which the “degree of disease onset” value in data set [1] and in data set [2] was 0 in each case.

For `CC1(C)N2OC2(c2cnc3ccccc3c2)c2cccc(F)c2C1(F)F` (stereo not drawn) [Example 203, 4,4,5-trifluoro-3,3-dimethyl-8b-quinolin-3-yl-4,8b-dihydro-3H-oxazileno[3,2-a]isoquinoline], the “degree of disease onset” value in data set [1] and in data set [2] was 0 throughout. Regarding `CC1(C)c2c(F)cccc2C(c2cnc3ccccc3c2)=[N+]([O-])C1(C)C` [Example 204, 3-(5-fluoro-3,3,4,4-tetramethyl-2-oxide-3,4-dihydroisoquinolin-1-yl)quinoline], the “degree of disease onset” value in data set [1] and in data set [2] was 0 throughout. Regarding `CC1(C)c2ccccc2C(c2cnc3ccccc3c2)=[N+]([O-])C1(C)C` [Example 207, 3-(3,3,4,4-tetramethyl-2-oxide-3,4-dihydroisoquinolin-1-yl)quinoline], the “degree of disease onset” value in data set [1] and in data set [2] was 0 in each case. As for `CC1(C)c2cc(F)ccc2C(c2cnc3ccccc3c2)=[N+]([O-])C1(C)C` [Example 209, 3-(6-fluoro-3,3,4,4-tetramethyl-2-oxide-3,4-dihydroisoquinolin-1-yl)quinoline], the “degree of disease onset” value in data set [1] and in data set [2] was 0 in each case. As to `CC1(C)c2cc(Cl)ccc2C(c2cnc3ccccc3c2)=[N+]([O-])C1(C)C` [Example 211, 3-(6-chloro-3,3,4,4-tetramethyl-2-oxide-3,4-dihydroisoquinolin-1-yl)quinoline], the “degree of disease onset” value in data set [1] and in data set [2] was 0 throughout. Consider `CC1(C)c2ccccc2C(c2cnc3ccccc3c2)=[N+]([O-])C12CCCCC2` [Example 217], for which the “degree of disease onset” value in data set [1] and in data set [2] was 0 in each case.

With `CC1(C)[N+]([O-])=C(c2cnc3ccccc3c2)c2ccccc2C1(F)F` [Example 218, 3-(4,4-difluoro-3,3-dimethyl-2-oxide-3,4-dihydroisoquinolin-1-yl)quinoline], the “degree of disease onset” value in data set [1] and in data set [2] was 0 each time. As for `CC1(C)[N+]([O-])=C(c2cnc3ccccc3c2)c2cccc(F)c2C1(F)F` [Example 219, 3-(4,4,5-trifluoro-3,3-dimethyl-2-oxide-3,4-dihydroisoquinolin-1-yl)quinoline], the “degree of disease onset” value in data set [1] and in data set [2] was 0 each time.

By melting point is commonly meant the temperature of the solid-liquid transition.
